# Measurements from patent US20110262355A1, “COMPOSITIONS COMPRISING ENZYME-CLEAVABLE OPIOID PRODRUGS AND INHIBITORS THEREOF” (priority 2010, published 2011).
# Where two headings read alike, the source gives them in different places.
# How the values were obtained:
# [1] = Pharmacokinetics of oxycodone prodrug Compound KC-2 or oxycodone following PO administration to rats; assay type: in vivo; conditions: rat, KC-2 20 mg/kg vs oxycodone 10 mg/kg
# [2] = In vitro stability of Compound KC-2 to household chemicals and enzyme preparations; assay type: physicochemical; conditions: vodka, baking soda, WINDEX, vinegar (RT or 80° C.), GNC Super Digestive, tenderizer, subtilisn (RT); 1 or 24 hr
# Procedure: Samples were incubated as described and aliquots removed at 1 hr and 24 hr and stabilized by adding each to a solution of 50% or 100% of 85% phosphoric acid solution to achieve a final pH of less than or equal to pH 4. The stabilized aliquots were then diluted 4- to 6-fold with water, vortex-mixed and applied to HPLC.
# [3] = male, Sprague Dawley, rat, in vivo
# human μ-opioid receptor [4] = molecular target: T1, human μ-opioid receptor (Homo sapiens, UniProt P35372); assay: In vitro human μ-opioid receptor binding assay
# human μ-opioid receptor [5] = molecular target: T1, human μ-opioid receptor; assay: cell-based; parameters: expressed in transfected cells; host or cells: CHO; conditions: agonist response, cAMP (HTRF); recombinant CHO cells; 37° C., 10 min; three separate experiments
# Procedure: This Example measures the ability of certain compounds of the present disclosure to effect an agonist response when exposed to recombinant human μ-opioid receptor expressed in CHO cells.
# A. and Uhl, G. R. (1994). […] The control reaction included 1 μM DAMGO. The reaction mixtures were incubated at 37° C. for 10 min, and the reaction product was cyclic AMP (cAMP). The samples were submitted to homogeneous time resolved fluorescence (HTRF®). EC50 values (concentration producing a half-maximal specific response) were determined by non-linear regression fit using the Hillplot software.
# trypsin [6] = molecular target: T2, trypsin (Bos taurus, UniProt P00760); assay: In vitro trypsin-mediated release of oxycodone from Compound KC-2, without or with Compound 109; assay type: biochemical, bovine; parameters: purchased Sigma-Aldrich T8003; host or cells: bovine pancreas; conditions: bovine, trypsin from bovine pancreas, read-out: Pro-drug trypsin half-life, h Average ± sd (converted)
# T2 sequence (P00760 24-246): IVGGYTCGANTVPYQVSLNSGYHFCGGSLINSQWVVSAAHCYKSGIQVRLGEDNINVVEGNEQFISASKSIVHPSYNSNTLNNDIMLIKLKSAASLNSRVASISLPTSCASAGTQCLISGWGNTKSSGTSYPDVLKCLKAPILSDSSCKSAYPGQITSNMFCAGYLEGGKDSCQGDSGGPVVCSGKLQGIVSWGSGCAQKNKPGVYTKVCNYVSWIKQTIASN
# Source text: (§1) The square symbols indicate the disappearance of Compound KC-2, and the triangle symbols depict the appearance of oxycodone, over time under the conditions described in this Example.
# [7] = molecular target: T3, trypsin from bovine pancreas (Bos taurus, UniProt P00760); assay: as above; assay type: biochemical; parameters: purchased Sigma-Aldrich T8003; host or cells: bovine pancreas; conditions: 0.761 mM KC-2; 0.0228 mg/mL trypsin; 37° C.; no trypsin inhibitor
# T3 sequence (P00760 24-246): T2 sequence (P00760 24-246)
# Source text: as §1
# trypsin [8] = molecular target: T2, trypsin; assay: In vitro trypsin-mediated release of drug from ketone-modified opioid prodrugs KC-3 to KC-6, effect of Compound 109; conditions: bovine, trypsin from bovine pancreas, h Average ± sd
# Source text: (§2) Other reaction and sample treatment conditions were as described above.
# [9] = molecular target: T3, trypsin from bovine pancreas; assay: as above; conditions: 0.761 mM prodrug, 37° C., no trypsin inhibitor
# Source text: as §2
# [10] = In vivo tolerability of Compound KC-3 in rats (IV); conditions: rat, Compound KC-3 97 μmol/kg, tolerated
# Procedure: Male naïve Sprague-Dawley rats, 4 per dose, were used in the study. Rats were weighed, and then placed under a heat lamp for 15-20 minutes to dilate the lateral tail veins. […] Before dosing, rats were placed in Broome restrainers and the drug was introduced into one of the tail veins using a syringe and needle. […] Blood samples were collected 5 minutes post-dose via the saphenous vein. The rats were observed up to 24 hours.
# [11] = In vitro stability of Compound KC-3 to household chemicals and enzyme preparations; assay type: physicochemical; conditions: vodka, baking soda, WINDEX, vinegar (RT or 80° C.), GNC Super Digestive, tenderizer, subtilisn (RT); 1 or 24 hr
# Procedure: Samples were incubated as described. Aliquots were removed at 1 hr and 24 hr and stabilized by adding each to a solution of 50% or 100% of 85% phosphoric acid solution to achieve a final pH of less than or equal to pH 4. The stabilized aliquots were then diluted 4- to 6-fold with water, vortex-mixed and applied to HPLC.
# [12] = male, Sprague Dawley, rat, in vivo; remark: listed apart in the source
# [13] = rat
# [14] = Pharmacokinetics of Compound KC-5 following PO administration to rats; conditions: rat; PO Compound KC-5
# [15] = male, Sprague Dawley, rat, in vivo; remark: listed apart in the source
# [16] = Pharmacokinetics of Compound KC-6 following PO administration to rats; conditions: rat; PO Compound KC-6
# [17] = HM in rat plasma, PO, PC-4 20 mg/kg
# [18] = Oral administration of Compound PC-4 and SBTI trypsin inhibitor to rats; conditions: HM in rat plasma, PC-4 20 mg/kg
# [19] = molecular target: T3, trypsin from bovine pancreas; assay: In vitro trypsin conversion of prodrugs to hydromorphone and inhibition by trypsin inhibitor; conditions: with trypsin inhibitor 3,089 uM Compound 109
# Procedure: The reactions were conducted at 37° C. for 24 hr. Samples were collected at specified time points, transferred into 0.5% formic acid in acetonitrile to stop trypsin activity and stored at less than −70° C. until analysis by LC-MS/MS.
# The results are expressed as half-life of prodrug when exposed to trypsin (i.e., Prodrug trypsin half-life) in hours and rate of formation of HM per unit of trypsin.
# [20] = pH 8, Pro-drug trypsin half-life, 0.761 mM prodrug, 241 BAEE U trypsin/mL, 37° C., no trypsin inhibitor
# [21] = male, Sprague Dawley, in vivo, iv, 10 mg/kg
# T1 sequence (P35372 whole entry): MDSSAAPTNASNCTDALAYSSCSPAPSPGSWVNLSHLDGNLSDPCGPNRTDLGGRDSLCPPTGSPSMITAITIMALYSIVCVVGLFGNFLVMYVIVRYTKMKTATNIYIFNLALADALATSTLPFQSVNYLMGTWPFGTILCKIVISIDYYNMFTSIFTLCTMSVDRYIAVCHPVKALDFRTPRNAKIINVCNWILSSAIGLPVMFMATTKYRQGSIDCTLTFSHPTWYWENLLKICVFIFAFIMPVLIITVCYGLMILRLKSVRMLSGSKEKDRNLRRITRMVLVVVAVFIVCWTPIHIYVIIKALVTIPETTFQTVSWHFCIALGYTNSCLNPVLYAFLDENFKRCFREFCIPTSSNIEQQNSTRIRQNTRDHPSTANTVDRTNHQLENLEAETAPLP
smiles,measurement,setting,value
"COc1ccc2c3c1O[C@H]1C(OC(=O)N(C)CCNC(=O)[C@H](CCCNC(=N)N)NC(C)=O)=CC[C@@]4(O)[C@@H](C2)N(C)CC[C@]314 [Compound KC-2, Oxycodone 6-(N-methyl-N-(2-N′-acetylarginylamino))ethylcarbamate]",oxycodone plasma concentrations compared to administration of oxycodone,[1],suppressed Cmax and delayed Tmax compared to administration of oxycodone
same,conversion to oxycodone,[2],less than 10%
same,Compound conc. in CSF,[3],61.9 ng/mL
same,Compound conc. in Plasma,[3],"27,200 ng/mL"
same,Plasma/CSF partitioning coefficient,[3],439
same,IC50,human μ-opioid receptor [4],22 nM
same,EC50,human μ-opioid receptor [5],490 nM
same,half-life at 0.761 mM,"trypsin [6]; pH 8, with Compound 109 (trypsin inhibitor) 2 µM ([…])",116 ± 118 h
same,half-life at 0.761 mM,"trypsin [6]; pH 8, 0.761 mM KC-2, 0.0228 mg/mL trypsin, 37° C., no trypsin inhibitor",5.64 ± 0.26 h
same,"Rate of oxycodone formation, umols/h/umol trypsin Average ± sd",[7],37.4 ± 0.9 umols/h/umol trypsin
"COc1ccc2c3c1O[C@H]1C(OC(=O)N(C)CCNC(=O)[C@H](CCCNC(=N)N)NC(=O)CC(=O)O)=CC[C@@]4(O)[C@@H](C2)N(C)CC[C@]314 [Compound KC-3, N-{(S)-4-guanidino-1-[2-(methyl-[(5R,9R,13S,14S)-4,5a-epoxy-6,7-didehydro-14-hydroxy-3-methoxy-17-methylmorphinan-6-oxy]carbonyl-amino)-ethylcarbamoyl]-butyl}-malonamic acid]",half-life at 0.761 mM,trypsin [8]; [20],8.92 ± 1.91 h
same,half-life at 0.761 mM,"trypsin [8]; pH 8, with Compound 109 (trypsin inhibitor), 2 µM, Pro-drug trypsin half-life, with trypsin inhibitor Compound 109 2 uM",43.3 ± 40.6 h
same,"Rate of oxycodone formation, umol/h/BAEE U Average ± sd",[9]; 241 BAEE U trypsin/mL,0.0684 ± 0.0009 umol/h/BAEE U
same,time to recover to normal activity,[10],≤ 2 min
same,conversion to oxycodone,[11],less than 10%
same,Compound conc. in CSF,[12],34.1 ng/mL
same,Compound conc. in Plasma,[12],"59,225 ng/mL"
same,Plasma/CSF partitioning coefficient,[12],"1,737"
same,EC50,human μ-opioid receptor [5],1600 nM
"COc1ccc2c3c1O[C@H]1C(OC(=O)N(CCCCCC(=O)O)CCNC(=O)[C@H](CCCNC(=N)N)NC(C)=O)=CC[C@@]4(O)[C@@H](C2)N(C)CC[C@]314 [Compound KC-5, 6-{[2-(2-Acetylamino-5-guanidino-pentanoylamino)-ethyl]-[(5R,9R,13S,14S)-4,5a-epoxy-6,7-didehydro-14-hydroxy-3-methoxy-17-methylmorphinan-6-oxy]-1-enyloxycarbonyl-amino}-hexanoic acid]",half-life at 0.761 mM,trypsin [8]; [20],1.2 ± 0.04 h
same,"Rate of oxycodone formation, umol/h/BAEE U Average ± sd",[9]; 241 BAEE U trypsin/mL,0.135 ± 0.005 umol/h/BAEE U
same,plasma/CSF partitioning coefficient,"[13]; male, Sprague Dawley, in vivo","1,508"
same,Compound conc. in CSF,[13]; [21],36.4 ng/mL
same,Compound conc. in Plasma,[13]; [21],"54,900 ng/mL"
same,Plasma/CSF partitioning coefficient,[13]; [21],"1,508"
same,relative plasma/CSF partitioning coefficient of prodrug to oxycodone (fold less CSF penetrant),"[13]; IV, 1,508/4.8",about 316 fold
same,EC50,human μ-opioid receptor [5],2000 nM
same,oxycodone plasma concentrations compared to administration of oxycodone,[14],suppressed Cmax and AUC and delayed Tmax compared to administration of oxycodone
"COc1ccc2c3c1O[C@H]1C(OC(=O)N(C)C[C@H](NC(=O)[C@H](CCCNC(=N)N)NC(C)=O)C(=O)N(C)CC(=O)O)=CC[C@@]4(O)[C@@H](C2)N(C)CC[C@]314 [Compound KC-6, ({(S)-2-((S)-2-Acetylamino-5-guanidino-pentanoylamino)-3-[(oxycodone-enyloxycarbonyl)-methyl-amino]-propionyl]-methyl-amino)-acetic acid]","Rate of oxycodone formation, umol/h/BAEE U Average ± sd",[9]; 241 BAEE U trypsin/mL,0.0118 ± 0.0042 umol/h/BAEE U
same,"Rate of oxycodone formation, umol/h/BAEE U Average ± sd",[9]; 4815 BAEE U trypsin/mL,0.00571 ± 0.0002 umol/h/BAEE U
same,Compound conc. in CSF,[15],74.1 ng/mL
same,Compound conc. in Plasma,[15],"60,400 ng/mL"
same,Plasma/CSF partitioning coefficient,[15],815
same,plasma/CSF partitioning coefficient,[15],815
same,EC50,human μ-opioid receptor [5],1800 nM
same,oxycodone plasma concentrations compared to administration of oxycodone,[16],suppressed Cmax and AUC and delayed Tmax compared to administration of oxycodone
"CCN(CCNC(=O)[C@H](CCCNC(=N)N)NC(C)=O)C(=O)Oc1ccc2c3c1OC1C(=O)CCC4C(C2)N(C)CCC314 (stereo partly drawn) [Compound PC-4, [2-((S)-2-Acetylamino-5-guanidino-pentanoylamino)-ethyl]-ethyl-carbamic acid hydromorphone ester]",Cmax (ng/mL HM),"[17]; Compound 101 0 mg/kg, 7 rats",7.7 ± 2.3 ng/mL
same,Tmax,"[17]; Compound 101 0 mg/kg, 7 rats",2.3 h
same,Cmax (ng/mL HM),"[17]; Compound 101 10 mg/kg, 4 rats",4.8 ± 1.4 ng/mL
same,Tmax,"[17]; Compound 101 10 mg/kg, 4 rats",6.0 h
same,Cmax (ng/mL HM),"[18]; SBTI 0 mg/kg, 7 rats",7.7 ± 2.3 ng/mL
same,Tmax,"[18]; SBTI 0 mg/kg, 7 rats",2.3 h
same,Cmax (ng/mL HM),"[18]; SBTI 500 mg/kg, 4 rats",7.5 ± 2.1 ng/mL
same,Tmax,"[18]; SBTI 500 mg/kg, 4 rats",6.5 h
same,"Rate of HM formation, umols/h/umol trypsin Average ± sd",[19],3.27 ± 1.87 umols/h/umol trypsin
